In patent US9930892B2, “Molecules having pesticidal utility, and intermediates, compositions, and processes, related thereto” (Dow AgroSciences LLC, priority 2016, dated 2018):

How the values were obtained:
[1] = test system: Beet Armyworm (Spodoptera exigua); test: Bioassay on Beet Armyworm (BAW), 128-well diet tray assay; format: in vivo; conditions: for BAW % Control (or Mortality) rating: 50 μg/cm^2 on artificial diet, second instar larvae, five to seven days, 25° C.; for mortality at 0.05 µg/cm2 / mortality at 0.5 µg/cm2 / mortality at 5 µg/cm2: Spodoptera exigua, read-out: BAW Percent control (or mortality); for mortality at 0.05 µg/cm2: 0.05 μg/cm^2; for mortality at 0.5 µg/cm2: 0.5 μg/cm^2; for mortality at 5 µg/cm2: 5 μg/cm^2
Procedure: Bioassays on BAW were conducted using a 128-well diet tray assay. One to five second instar BAW larvae were placed in each well (3 mL) of the diet tray that had been previously filled with 1 mL of artificial diet to which 50 μg/cm^2 of the test molecule (dissolved in 50 μL of 90:10 acetone-water mixture) had been applied (to each of eight wells) and then allowed to dry. Trays were covered with a clear self-adhesive cover and held at 25° C., 14:10 light-dark for five to seven days. Percent mortality was recorded for the larvae in each well; activity in the eight wells was then averaged. The results are indicated in the table entitled “Table ABC: Biological Results” (See Table Section).
(§1) Bioassays on BAW and CL were conducted according to the procedures outlined in Example A: Bioassays on Beet Armyworm (“BAW”) and Cabbage Looper (“CL”) using the indicated concentrations.

[2] = test system: Cabbage Looper (Trichoplusia ni); test: Bioassay on Cabbage Looper (CL), 128-well diet tray assay; format: in vivo; conditions: for CL % Control (or Mortality) rating: 50 μg/cm^2 on artificial diet, second instar larvae, five to seven days, 25° C.; for mortality at 0.05 µg/cm2 / mortality at 0.5 µg/cm2 / mortality at 5 µg/cm2: Trichoplusia ni, read-out: CL Percent control (or mortality); for mortality at 0.05 µg/cm2: 0.05 μg/cm^2; for mortality at 0.5 µg/cm2: 0.5 μg/cm^2; for mortality at 5 µg/cm2: 5 μg/cm^2
Procedure: Bioassays on CL were conducted using a 128-well diet tray assay. One to five second instar CL larvae were placed in each well (3 mL) of the diet tray that had been previously filled with 1 mL of artificial diet to which 50 μg/cm^2 of the test molecule (dissolved in 50 μL of 90:10 acetone-water mixture) had been applied (to each of eight wells) and then allowed to dry. Trays were covered with a clear self-adhesive cover and held at 25° C., 14:10 light-dark for five to seven days. Percent mortality was recorded for the larvae in each well; activity in the eight wells was then averaged. The results are indicated in the table entitled “Table ABC: Biological Results” (See Table Section).
as §1

| SMILES | BAW % Control (or Mortality) rating [1] | CL % Control (or Mortality) rating [2] | mortality at 0.05 µg/cm2 [1] [%] | mortality at 0.5 µg/cm2 [1] [%] | mortality at 5 µg/cm2 [1] [%] | mortality at 0.05 µg/cm2 [2] [%] | mortality at 0.5 µg/cm2 [2] [%] | mortality at 5 µg/cm2 [2] [%] |
| --- | --- | --- | --- | --- | --- | --- | --- | --- |
| O=C(CCC(F)(F)F)NNC(=O)c1ccc(/C(F)=C/C(c2cc(Cl)c(Cl)c(Cl)c2)C(F)(F)F)cc1C(F)(F)F (stereo not shown) [F4, (Z)-4-(1,4,4,4-Tetrafluoro-3-(3,4,5-trichlorophenyl)but-1-en-1-yl)-N′-(4,4,4-trifluorobutanoyl)-2-(trifluoromethyl)benzohydrazide] | A (50-100) | A (50-100) | – | – | – | – | – | – |
| O=C(NCC(F)(F)F)NNC(=O)c1ccc(/C(F)=C/C(c2cc(Cl)c(Cl)c(Cl)c2)C(F)(F)F)cc1C(F)(F)F (stereo not shown) [F3, (Z)-2-(4-(1,4,4,4-Tetrafluoro-3-(3,4,5-trichlorophenyl)but-1-en-1-yl)-2-(trifluoromethyl)benzoyl)-N-(2,2,2-trifluoroethyl)hydrazinecarboxamide] | A (50-100) | A (50-100) | – | – | – | – | – | – |
| CN(NC(=O)c1ccc(/C(F)=C/C(c2cc(Cl)c(Cl)c(Cl)c2)C(F)(F)F)cc1C(F)(F)F)S(=O)(=O)CCC(F)(F)F (stereo not shown) [F19, (Z)-3,3,3-trifluoro-N-methyl-N′-(4-(1,4,4,4-tetrafluoro-3-(3,4,5-trichlorophenyl)but-1-en-1-yl)-2-(trifluoromethyl)benzoyl)propane-1-sulfonohydrazide] | A (50-100) | A (50-100) | – | – | – | – | – | – |
| CN(NC(=O)c1ccc(/C(F)=C/C(c2cc(Cl)c(Cl)c(Cl)c2)C(F)(F)F)cc1C(F)(F)F)C(=O)NCC(F)(F)F (stereo not shown) [F1, (Z)-1-methyl-2-(4-(1,4,4,4-tetrafluoro-3-(3,4,5-trichlorophenyl)but-1-en-1-yl)-2-(trifluoromethyl)benzoyl)-N-(2,2,2-trifluoroethyl)hydrazinecarboxamide] | A (50-100) | A (50-100) | 100 | 100 | 100 | 100 | 100 | 100 |
| O=C(CCC(F)(F)F)NNC(=O)c1ccc(/C(F)=C/C(c2cc(Cl)c(Cl)c(Cl)c2)C(F)(F)F)cc1I (stereo not shown) [F21, (Z)-2-Iodo-4-(1,4,4,4-tetrafluoro-3-(3,4,5-trichlorophenyl)but-1-en-1-yl)-N′-(4,4,4-trifluorobutanoyl)benzohydrazide] | A (50-100) | A (50-100) | – | – | – | – | – | – |
| CN(NC(=O)c1ccc(/C(F)=C/C(c2cc(Cl)c(Cl)c(Cl)c2)C(F)(F)F)c2ccccc12)C(=O)NCC(F)(F)F (stereo not shown) [PF1, (Z)-1-Methyl-2-(4-(1,4,4,4-tetrafluoro-3-(3,4,5-trichlorophenyl)but-1-en-1-yl)-1-naphthoyl)-N-(2,2,2-trifluoroethyl)hydrazine-1-carboxamide] | A (50-100) | A (50-100) | – | – | – | – | – | – |
| CC(C)(C)C(=O)NNC(=O)c1ccc(/C(F)=C/C(c2cc(Cl)c(Cl)c(Cl)c2)C(F)(F)F)cc1C(F)(F)F (stereo not shown) [F29, (Z)—N′-Pivaloyl-4-(1,4,4,4-tetrafluoro-3-(3,4,5-trichlorophenyl)but-1-en-1-yl)-2-(trifluoromethyl)benzohydrazide] | A (50-100) | A (50-100) | – | – | – | – | – | – |
| O=C(NCC(F)(F)F)NNC(=O)c1ccc(/C(F)=C/C(c2cc(Cl)c(Cl)c(Cl)c2)C(F)(F)F)cc1Br (stereo not shown) [F2, (Z)-2-(2-bromo-4-(1,4,4,4-tetrafluoro-3-(3,4,5-trichlorophenyl)but-1-en-1-yl)benzoyl)-N-(2,2,2-trifluoroethyl)hydrazinecarboxamide] | A (50-100) | A (50-100) | – | – | – | – | – | – |
| O=C(NNS(=O)(=O)CCC(F)(F)F)c1ccc(/C(F)=C/C(c2cc(Cl)c(Cl)c(Cl)c2)C(F)(F)F)cc1C(F)(F)F (stereo not shown) [F24, (Z)-3,3,3-Trifluoro-N′-(4-(1,4,4,4-tetrafluoro-3-(3,4,5-trichlorophenyl)but-1-en-1-yl)-2-(trifluoromethyl)benzoyl)propane-1-sulfonohydrazide] | A (50-100) | A (50-100) | – | – | – | – | – | – |
| C=Cc1c(Cl)cc(C(/C=C(\F)c2ccc(C(=O)NN(C)C(=O)NCC(F)(F)F)c(C(F)(F)F)c2)C(F)(F)F)cc1Cl (stereo not shown) [F17, (Z)-2-(4-(3-(3,5-Dichloro-4-vinylphenyl)-1,4,4,4-tetrafluorobut-1-en-1-yl)-2-(trifluoromethyl)benzoyl)-1-methyl-N-(2,2,2-trifluoroethyl)hydrazinecarboxamide] | A (50-100) | A (50-100) | – | – | – | – | – | – |
| CN(NC(=O)c1ccc(/C(F)=C/C(c2cc(Cl)c(Br)c(Cl)c2)C(F)(F)F)cc1C(F)(F)F)C(=O)NCC(F)(F)F (stereo not shown) [F23, (Z)-2-(4-(3-(4-Bromo-3,5-dichlorophenyl)-1,4,4,4-tetratfluorobut-1-en-1-yl)-2-(trifluoromethyl)benzoyl)-1-methyl-N-(2,2,2-trifluoroethyl)hydrazinecarboxamide] | A (50-100) | A (50-100) | – | – | – | – | – | – |
| O=C(CCC(F)(F)F)NNC(=O)c1ccc(/C(F)=C/C(c2cc(Cl)c(Cl)c(Cl)c2)C(F)(F)F)cc1Cl (stereo not shown) [F20, (Z)-2-Chloro-4-(1,4,4,4-tetrafluoro-3-(3,4,5-trichlorophenyl)but-1-en-1-yl)-N′-(4,4,4-trifluorobutanoyl)benzohydrazide] | A (50-100) | A (50-100) | – | – | – | – | – | – |
| CN(NC(=O)c1ccc(/C(F)=C/C(c2cc(Cl)c(Cl)c(Cl)c2)C(F)(F)F)cc1C(F)(F)F)C(=O)CCC(F)(F)F (stereo not shown) [F11, (Z)—N′-Methyl-4-(1,4,4,4-tetrafluoro-3-(3,4,5-trichlorophenyl)but-1-en-1-yl)-N′-(4,4,4-trifluorobutanoyl)-2-(trifluoromethyl)benzohydrazide] | A (50-100) | A (50-100) | – | – | – | – | – | – |
| CN(NC(=O)c1ccc(/C(F)=C/C(c2cc(Br)c(Cl)c(Br)c2)C(F)(F)F)cc1C(F)(F)F)C(=O)NCC(F)(F)F (stereo not shown) [F18, (Z)-2-(4-(3-(3,5-Dibromo-4-chlorophenyl)-1,4,4,4-tetrafluorobut-1-en-1-yl)-2-(trifluoromethyl)benzoyl)-1-methyl-N-(2,2,2-trifluoroethyl)hydrazinecarboxamide] | A (50-100) | A (50-100) | – | – | – | – | – | – |
| CN(NC(=O)c1ccc(/C(F)=C/C(c2cc(Cl)c(Cl)c(Cl)c2)C(F)(F)F)cc1)C(=O)NCC(F)(F)F (stereo not shown) [FC1, (Z)-1-methyl-2-(4-(1,4,4,4-tetrafluoro-3-(3,4,5-trichlorophenyl)but-1-en-1-yl)benzoyl)-N-(2,2,2-trifluoroethyl)hydrazinecarboxamide, reference compound] | – | – | 0 | 0 | 25 | 0 | 0 | 7 |
| Cc1cc(/C(F)=C/C(c2cc(Cl)c(Cl)c(Cl)c2)C(F)(F)F)ccc1C(=O)NN(C)C(=O)NCC(F)(F)F (stereo not shown) [F28, (Z)-1-Methyl-2-(2-methyl-4-(1,4,4,4-tetrafluoro-3-(3,4,5-trichlorophenyl)but-1-en-1-yl)benzoyl)-N-(2,2,2-trifluoroethyl)hydrazinecarboxamide] | – | – | 88 | 100 | 100 | 100 | 100 | 100 |
